Data published in patent publication US9629830B2, “EphA4 inhibitors as neuroprotective agents” (The Hong Kong University of Science and Technology, priority 2013, dated 2017).

Experiments:
[1] = biological target: T1, extracellular domain of EphA4 (Homo sapiens, UniProt P54764); assay: In vitro pull-down of recombinant EphA4-Fc with biotinylated Rhy on streptavidin beads; assay type: binding; conditions: western blot
T1 construct: purchased R&D Systems
Protocol: For the pull-down analysis, Bio-Rhy was bound to streptavidin magnetic beads for 1 h, the beads was then incubated with recombinant EphA4-Fc or EphB2-Fc in the presence of 0.5% BSA for 1 h. After incubation, the beads were washed 4 times with DPBS and the presence of Eph in the complex was determined by western blot analysis.

[2] = test system: EphA4-dependent growth cone collapse in hippocampal neurons; assay: EphA4-dependent (ephrin-A1-stimulated) growth cone collapse assay; assay type: cell-based, rat; conditions: for ephrin-A1-stimulated growth cone collapse: cultured hippocampal neurons
Protocol: Ephrin-A1-Fc was pre-clustered with goat anti-human Fc antibody (1:4.5)^24 and incubated at room temperature for 60 min before use. The growth cone collapse assay was performed in hippocampal neurons with ephrin-A1 0.1 μg/mL as described previously^61.
(§1) For EphA4 clustering, neurons were stained with anti-EphA4 and anti-Tau-1 antibodies. For the growth cone collapse assay, neurons were stained with Alexa Fluor 555-conjugated phalloidin (Molecular Probes) for filamentous actin and anti-Tau-1 antibody for axons. Collapsed growth cones were scored in a double-blinded manner. The experiments were repeated at least 3 times, and >50 neurons were analyzed for each experiment. Data are presented as mean±SEM.
To screen for small molecule EphA4 inhibitors, the inventors performed a molecular docking analysis using a small molecule library. […] Their ability in inhibiting EphA4 inhibiting the EphA4-dependent growth cone collapse using cultured hippocampal neurons was performed.

[3] = test system: Aβ-induced reduction of neurotransmission in hippocampal neurons; assay: mEPSC recording in Aβ-treated cultured hippocampal neurons; assay type: cell-based, rat
Protocol: Primary cortical and hippocampal neurons were prepared from embryonic day 18-19 rat embryos as described previously^24. Briefly, cortical neurons (6×10^6 per plate) were plated on 100-mm culture dishes coated with poly-D-lysine (12.5 μg/mL; Sigma). Rat hippocampal neurons were seeded on 18-mm coverslips coated with poly-D-lysine (50 μg/mL) at a density of 0.5×10^5/18-mm coverslip for immunocytochemical analysis, 0.1×10^5/18-mm coverslip for growth cone collapse assay, or 1×10^5 or 1.5×10^5/18-mm coverslip for mEPSC recording. Neurons were fed Neurobasal medium (Invitrogen) supplemented with 2% B27 (Invitrogen). Acute brain slices were prepared from P15-P17 Sprague-Dawley rats. Briefly, the rats were rapidly decapitated, and their brains were immersed in ice-cold artificial cerebrospinal fluid (ACSF). The hippocampus was dissected, and 300-μm-thick slices were prepared using a vibratome (Lieca). The slices were then transferred into an incubating chamber containing circulating ACSF equilibrated with 95% O2+5% CO2 and held at room temperature for at least 2 h for recovery prior to experiments^65.
For miniature EPSC recordings, hippocampal neurons at ˜25-28 DIV were co-treated with or without 500 nM Aβ together with the testing reagents for 24 h. Whole-cell patch-clamp recordings were made at room temperature with external solution containing (in mM) 110 NaCl, 5 KCl, 2 CaCl2, 0.8 MgCl2, 10 HEPES, and 10 D-glucose (pH 7.4) as well as an internal solution containing (in mM) 135 CsCl2, 10 HEPES, 2 MgCl2, 4 NaATP, 0.4 NaGTP, and 0.5 EGTA (pH 7.2)^24,27. Picrotoxin ([…]) was included in the external solution to block GABAergic IPSCs along with 0.5 μM TTX to prevent action potential-evoked EPSCs. For miniature EPSC recordings, cells were held at −70 mV. The pipette resistances for these experiments were typically 3-5 MΩ, while series resistances were 15-20 MΩ. The minis from each cell was recorded for 1 min in each condition. The measurement of mEPSC was according to that described in Mini Analysis Program for measuring AMPA receptor EPSCs (Synaptosoft Inc.). Only recording epochs in which series and input resistances varied <10% were analyzed. Data are presented as the mean±SEM of at least 3 experiments.

EphA4 [4] = biological target: T2, EphA4 (Rattus norvegicus, UniProt D3ZZK3); assay: Ephrin-A1-induced EphA4 cluster assay in cultured hippocampal neurons; assay type: cell-based; conditions: same assay system; no data given
T2 construct: endogenous in cells; host or cells: primary rat cortical neurons (A5), primary rat hippocampal neurons (A7)
T2 sequence (D3ZZK3 20-986): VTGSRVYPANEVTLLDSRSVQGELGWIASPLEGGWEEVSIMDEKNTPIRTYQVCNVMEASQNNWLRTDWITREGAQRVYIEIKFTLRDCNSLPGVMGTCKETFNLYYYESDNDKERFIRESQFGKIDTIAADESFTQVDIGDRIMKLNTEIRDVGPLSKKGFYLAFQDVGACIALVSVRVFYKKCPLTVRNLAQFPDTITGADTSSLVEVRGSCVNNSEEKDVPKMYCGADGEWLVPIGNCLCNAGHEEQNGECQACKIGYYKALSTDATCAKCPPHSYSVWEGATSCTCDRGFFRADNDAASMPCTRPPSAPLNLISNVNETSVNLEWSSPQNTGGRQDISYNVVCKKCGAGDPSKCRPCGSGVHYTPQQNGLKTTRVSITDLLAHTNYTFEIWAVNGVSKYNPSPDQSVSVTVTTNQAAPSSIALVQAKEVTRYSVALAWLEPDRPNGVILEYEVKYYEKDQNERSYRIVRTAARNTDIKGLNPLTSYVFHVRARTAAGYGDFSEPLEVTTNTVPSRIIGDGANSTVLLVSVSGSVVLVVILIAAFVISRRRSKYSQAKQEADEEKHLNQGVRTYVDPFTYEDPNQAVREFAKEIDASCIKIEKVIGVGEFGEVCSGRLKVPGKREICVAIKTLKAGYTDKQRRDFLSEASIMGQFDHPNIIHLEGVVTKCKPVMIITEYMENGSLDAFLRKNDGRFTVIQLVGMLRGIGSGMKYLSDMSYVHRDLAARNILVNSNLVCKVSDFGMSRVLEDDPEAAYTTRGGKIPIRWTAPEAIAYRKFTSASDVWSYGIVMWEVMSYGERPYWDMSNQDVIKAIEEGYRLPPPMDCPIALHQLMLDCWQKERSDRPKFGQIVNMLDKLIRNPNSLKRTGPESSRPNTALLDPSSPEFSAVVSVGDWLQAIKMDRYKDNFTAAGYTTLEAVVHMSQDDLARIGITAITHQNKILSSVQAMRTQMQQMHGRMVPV
Protocol: as §1
Rat hippocampal neurons were seeded on 48-well plates coated with poly-D-lysine (50 μg/mL) at 6000 cells per well. Neurons were incubated with Neurobasal medium (Invitrogen) supplemented with 2% B27 (Invitrogen). […] Neurons were then immunostained with anti-EphA4 and anti-Tau-1 antibodies. The cellular imaging and quantification of EphA4 clusters was performed using IN Cell Analyzer 6000 high content assay system (GE Healthcare). EphA4 clusters were quantified by calculating the proportion of total area of EphA4 clusters on axons against Tau positive area. Statistical analysis was performed with one-way ANOVA followed by Newman-Keuls Multiple Comparison Test (Prism 5 GraphPad Software).

EphA4 (HT-22 cells) = biological target: T3, EphA4 (HT-22 cells) (Mus musculus, UniProt Q03137); assay: Cell-based binding of biotinylated ephrin-A1 to the surface of HT-22 cells; conditions: 10 min pre-incubation; Rhy 300 μM, KYL 100 μM (FIG. 10); biotinylated ephrin-A1 0.5 μg/mL
T3 construct: HT-22 cells, a cell line that expresses EphA4; endogenous in cells; host or cells: HT-22 cells
T3 sequence (Q03137 20-986): as the sequence (D3ZZK3 20-986) above, with T270S, Q559K, P874S counted along it
Protocol: HT-22 cells were seeded on poly-D-lysine coverslips. […] The cells were then fixed with 4% paraformaldehyde and then immunostained with Alexa Fluor 488-conjugated Streptavidin antibody (Molecular Probes) for surfacing labeling of biotinylated ephrin-A1.

[5] = test system: Aβ-triggered reduction of dendritic spines in hippocampal neurons; assay: Dendritic spine analysis in Aβ-treated hippocampal neurons; assay type: cell-based, rat
Protocol: Cultured rat hippocampal neurons were transfected with GFP plasmid at 14-16 DIV and exposed to Aβ at 24-28 DIV for 24 h after treatment with 30 μM KYL peptide. The neurons were fixed with 4% paraformaldehyde and examined using confocal microscopy using a 63× objective lens as previously described^24.

EphA4 [6] = biological target: T2, EphA4; assay: Aβ-stimulated EphA4 tyrosine phosphorylation in acute hippocampal slices; assay type: cell-based; conditions: KYL 0.5 h pretreatment then Aβ 2 h
Protocol: Hippocampal synaptosomes were prepared as described previously^67. Acute hippocampal slices from P15-P17 rats were lysed in radioimmunoprecipitation assay (RIPA) buffer (1% Triton X-100, 1% sodium deoxycholate, 0.1% SDS, 150 mM NaCl, 10 mM sodium phosphate, 2 mM EDTA, and 0.2% sodium vanadate) with various protease inhibitors. For the Cdk5 kinase assay, cultured cortical neurons [16 days in vitro (DIV)] were lysed in lysis buffer A (20 mM Tris [pH 7.6], 150 mM NaCl, 1 mM EDTA, 1 mM EGTA, 1 mM NaF, and 0.5% Nonidet P-40) with various protease inhibitors. Western blot analysis was performed as described previously^24.
For the immunoprecipitation assay, lysates were immunoprecipitated with the corresponding antibody for 2 h at 4° C. followed by incubation with protein G Sepharose for 1 h at 4° C.^24. The samples were washed with RIPA buffer or buffer A and resuspended in SDS sample buffer. EphA4 tyrosine phosphorylation was detected by western blot analysis using 4G10 antibody.

[7] = test system: Aβ-induced impairment of hippocampal LTP; assay: HFS-induced LTP (fEPSP slope) in acute hippocampal slices treated with Aβ; assay type: cell-based, mouse
Protocol: Oligomeric Aβ (Aβ) was prepared as described previously^59,60. Briefly, 0.5 mg monomeric Aβ1-42 was dissolved in 22.2 μL dry DMSO and then diluted in ice-cold phenol-red free F-12 medium to yield a final Aβ concentration of 100 μM. The Aβ solution was incubated at 4° C. for 24 h and then centrifuged at 14,000×g for 10 min. The supernatant was frozen in liquid nitrogen and stored at −20° C. for up to 1 month. Unless specified, cultured neurons or hippocampal slices were typically treated with Aβ at 500 nM.
(§2) For LTP recordings, mouse brains were immediately dissected after sacrifice and soaked in ice-cold 95% O2/5% CO2 (aCSF)^58. Brain slices (300 μm thick) were prepared using a vibrating tissue slicer (HM650V; Thermo), and soaked in oxygenated buffer for 2 h at 32° C. The hippocampal regions were resected and placed at the center of a MED-P210A probe (Panasonic International Inc) with 64 embedded recording electrodes. The slices were then perfused with Aβ at 500 nM in oxygenated aCSF for 2 h before LTP induction^70. For treatment with EphA4 inhibitors, the slices were pretreated with peptides or chemicals for 1 h before application of Aβ. fEPSPs were recorded using a MED64 multichannel recording system, and the data were collected from the dendritic layer of area CA1 at a sampling rate of 10 kHz. For each slice, the baseline stimulus intensity was set at the level that elicited ˜50% of the maximum fEPSP response determined according to the input-output curve. LTP was induced by 3 trains of HFS (100 Hz, 1 s, delivered 30 s apart). The magnitude of LTP was quantified as a percentage change in the fEPSP slope (10%-90%) taken during the 60-min interval after LTP induction.

APP/PS1 mutant mice = assay: HFS-induced hippocampal LTP in WT and APP/PS1 mice after in vivo treatment; parameters: species or system mouse; conditions: KYL infused by osmotic pump (17 μg, ~3 weeks)
Text: APP/PS1 double-transgenic mice were obtained from Jackson Laboratory (B6C3-Tg[APPswe, PSEN1dE9]85Dbo/J)^66. These mice were generated by incorporating a human/murine APP construct bearing the Swedish double mutation and the exon-9-deleted PSEN1 mutation (APPswe+PSEN1/dE9). APP transgenic mice (Tg2576) expressing a double mutant of human AβPP (Lys^670→Asn^670, Met^671→Leu^671) were also used^31. Both sexes were used for experiments, and all mice used in this study were produced by the Animal Care Facility of The Hong Kong University of Science and Technology. The genotype was confirmed by polymerase chain reaction analysis of tail biopsies. Four to five mice of the same sex were housed in a cage with food and water ad libitum with a 12-hour light/dark cycle.
To investigate the effect of blocking EphA4 signaling by KYL peptide in AD mice, 4-5-month-old AD transgenic mice were implanted with Alzet mini-osmotic pumps, model 1004, pumping its contents at 0.11 μL/h for 28 days. Pumps were loaded with either 0.23 μg/μL KYL peptide (17 μg) or vehicle solvent in artificial cerebrospinal fluid (CSF). The mini-osmotic pumps were adjusted intracerebroventricularly in the right hemisphere. EphA4 in the CA1 regions of APP/PS1 mice was knocked down by injecting vesicular stomatitis virus glycoprotein G-pseudotyped lentiviral particles with pFUGW-shEphA4 bilaterally into the corresponding regions as described previously^58.
as §2, with “The hippocampal regions were resected and placed at the center of a MED-P210A probe (Panasonic International Inc) with 64 embedded recording electrodes. The slices were then perfused with Aβ at 500 nM in oxygenated aCSF for 2 h before LTP induction^70.” left out, “LTP was induced by 3 trains of HFS (100 Hz, 1 s, delivered 30 s apart).” left out
WT and APP/PS1 mutant (Tg) mice were orally administered with corylin ([…]) by daily gavage for 3-4 weeks prior to LTP measurements. LTP induced by 3 trains of HFS (100 Hz for 1 s delivered 30 s apart) in the CA1 region of the SC pathway of the hippocampus was measured. The magnitude of LTP was quantified as the percentage change in the fEPSP slope (10-90%) taken during the 60-min interval after LTP induction.

[8] = inhibitor (Cpd1 500 μM, Ros 10 μM) + Aβ, Aβ alone 818.1±28.2 ms
[9] = inhibitor alone (Cpd1 500 μM, Ros 10 μM), control 454.1±12.5 ms

T1 sequence (P54764 20-547 limits assumed): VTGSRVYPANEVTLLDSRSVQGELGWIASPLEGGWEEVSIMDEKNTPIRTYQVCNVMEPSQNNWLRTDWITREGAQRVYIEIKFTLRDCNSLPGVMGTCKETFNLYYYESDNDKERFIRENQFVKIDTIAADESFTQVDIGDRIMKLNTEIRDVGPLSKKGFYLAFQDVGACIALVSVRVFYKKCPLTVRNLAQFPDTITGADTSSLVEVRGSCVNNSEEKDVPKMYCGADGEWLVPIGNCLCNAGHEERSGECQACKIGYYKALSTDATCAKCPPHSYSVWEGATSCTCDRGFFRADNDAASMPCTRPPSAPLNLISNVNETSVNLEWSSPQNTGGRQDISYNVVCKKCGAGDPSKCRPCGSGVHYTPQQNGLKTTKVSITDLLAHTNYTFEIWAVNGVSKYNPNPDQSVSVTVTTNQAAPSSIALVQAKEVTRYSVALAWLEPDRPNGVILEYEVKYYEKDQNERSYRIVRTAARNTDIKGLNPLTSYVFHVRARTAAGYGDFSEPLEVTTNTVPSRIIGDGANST

CCC1CN2CCC3(C(=O)N(CCCCCCNC(=O)CCCCC4SCC5NC(=O)NC54)c4ccccc43)C2CC1C(=COC)C(=O)OC (stereo not shown) [Bio-Rhy]
binding to the extracellular domain of EphA4 (pull-down, words) [1]: bound specifically to the extracellular domain of EphA4

Cc1ccc(C)n1-c1ccc(C(=O)O)c(O)c1 [Cpd1, 2-hydroxy-4-(2,5-dimethyl-1-pyrrolyl)benzoic acid, reference compound]
ephrin-A1-stimulated growth cone collapse [2]: also inhibited ephrin-A1-stimulated growth cone collapse | concentration at which ephrin-A1-stimulated growth cone collapse is inhibited ([2]; data not shown): exceeding 10 μM | mEPSC inter-event interval [3, 8]: 542.6 ± 15.4 ms | mEPSC inter-event interval [3, 9]: 559.5 ± 16.6 ms

CC(C)[C@@H]1[C@H]2OC(=O)[C@@H]1[C@@H]1CC[C@@H]3CN(C)[C@H]2[C@@]31C [Dendrobine, dendrobine]
ephrin-A1-stimulated growth cone collapse [2]: inhibited ephrin-A1-stimulated growth cone collapse

CCC1CN2CCC3(C(=O)N(CCCCCCCCCCCl)c4ccccc43)C2CC1C(=COC)C(=O)OC (stereo not shown) [RHY-65]
potency as EphA4 inhibitor (EphA4 [4]): tested and verified

CCC1CN2CCC3(C(=O)N(CCCCCCCCCCCCl)c4ccccc43)C2CC1C(=COC)C(=O)OC (stereo not shown) [RHY-66]
potency as EphA4 inhibitor (EphA4 [4]): tested and verified

CCC1CN2CCC3(C(=O)N(CCCCCCCCCCCCCl)c4ccccc43)C2CC1C(=COC)C(=O)OC (stereo not shown) [RHY-67]
potency as EphA4 inhibitor (EphA4 [4]): tested and verified

CC[C@H](CO)Nc1nc(NCc2ccccc2)c2ncn(C(C)C)c2n1 [Ros, roscovitine]
mEPSC inter-event interval [3, 8]: 494.1 ± 11.7 ms | mEPSC inter-event interval [3, 9]: 451.0 ± 11.2 ms

KYLPYWPVLSSL [KYL peptide, reference compound]
binding of ephrin-A1 to HT-22 cells (EphA4 (HT-22 cells)): reduced the binding of ephrin-A1 to HT-22 cells | dendritic spine density ([5]; KYL peptide alone (30 μM), control 0.66±0.1/μm): 0.55±0.13 /μm | dendritic spine density ([5]; co-treatment of Aβ (24 h) and KYL peptide (30 μM), Aβ alone 0.46±0.21/μm): 0.61±0.18 /μm | Aβ-stimulated tyrosine phosphorylation of EphA4 (EphA4 [6]): abolished the Aβ-stimulated tyrosine phosphorylation of EphA4 | mean fEPSP slope, last 10 min after LTP induction ([7]; KYL peptide 100 μM + Aβ, Aβ alone 132±6.06%): 174.9±9.0% | mean fEPSP slope, last 10 min after LTP induction ([7]; KYL peptide 100 μM alone, control 169±6.72%): 164.6±5.7% | mean fEPSP slope, last 10 min after LTP induction (APP/PS1 mutant mice; APP/PS1 (Tg) mice, Tg Con 154.0±8.2%): 181.9±8.6% | mean fEPSP slope, last 10 min after LTP induction (APP/PS1 mutant mice; WT mice, WT Con 191.8±9.5%): 190.1±6.9%
